{"source": "patent US20100120703A1", "about": "“COMPOSITIONS AND METHODS FOR TREATING CANCER” (priority 2007, published 2010)", "key": {"[1]": {"test_system": "HepG2 cells", "assay": "cDNA microarray, drug toxicity and metabolism genes", "type": "cell-based, human", "details": "HepG2 cells before and after SIN treatment", "method": "The advancement of nucleic acid array technology has made it possible to analyze the expression of multiple genes in a single experiment. The cDNA Microarray is used to characterize gene expression associated with a specific biological pathway in a more comprehensive and cost effective manner. The genes on the cDNA microarray membrane are targeted to the drug toxicity and metabolism pathways. It is a useful approach to study the biological activities of SIN.\nHepG2 cells were treated and harvested as described in the foregoing examples. The cell pellet was dissolved in 500 μl TRIzol® reagent (Invitrogen, CA, USA). The whole solution was allowed to stand at room temperature for 5 minutes. The solution was centrifuged at 14,000 rpm for 10 minutes at 4° C. The supernatant was collected in a new tube with 100 μl chloroform. After shaking and incubation for 10 minutes at room temperature, the solution was centrifuged at 14,000 rpm for 15 minutes at 4° C. Recentrifugation was necessary if the layer was not clear. The upper aqueous layer was carefully transferred into a new tube with 250 μl isopropanol. After shaking, the tube was allowed to stand at room temperature for 10 minutes for RNA precipitation. […]\ncRNA purification was performed with SuperArray Array Grade cRNA Cleanup Kit. […] The quality and quantity of the cRNA product were determined as described previously. […]"}, "[2]": {"test_system": "Sprague Dawley (SD) rats", "assay": "Serum AST/ALT assay, progression stage", "type": "in vivo, rat", "method": "ALT (Alanine aminotransferase) and AST (Aspartate aminotransferase) are two enzymes that are specifically located in the liver. These two enzymes normally distribute little in blood serum. When liver damage occurs, the hepatocytes break and these two enzymes are released into the blood. An AST/ALT assay was used to diagnose liver damage. Rat blood was collected in a 13 ml BD PLUS-SST II serum vacutainer and allowed to stand for 20 minutes on ice to coagulate. The vacutainer was then centrifuged at 3,500 rpm for 15 minutes. The upper layer serum was collected. The AST/ALT assay was performed within 2 days to minimize the loss of the enzymes.\nThe serum AST activity assay was measured by a Stanbio AST (UV-Rate) kit. Fifteen milliliters of ddH2O were added into one bottle of the reagent in the kit and mixed thoroughly according to the kit protocol. One milliliter of the reagent was incubated at 37° C. for at least 10 minutes for each reaction. […] Absorbance was measured at OD 340 nm. After incubation for 1 minute, a reading was taken and the reading at this point was counted as time zero. Readings were then taken at 30 second interval for 3 minutes. The change of absorbance per minute was calculated and the AST activity was calculated by the formula\nThe ALT assay was measured by a Stanbio […]. […]"}}, "data": [{"smiles": "C=CC/C(=N/OS(=O)(=O)[O-])S[C@@H]1OC(CO)[C@@H](O)C(O)C1O.[K+]", "note": "(stereo partly drawn) [SIN, sinigrin]", "values": [{"measurement": "gene expression in drug toxicity and metabolism pathways", "setting": "[1]", "result": "many genes in drug toxicity and metabolism pathways were differentially expressed"}, {"measurement": "rat serum ALT level", "setting": "[2]; positive control 215% of negative control", "result": "levels similar to those in the negative control"}, {"measurement": "rat serum AST level", "setting": "[2]; positive control 265% of negative control", "result": "levels similar to those in the negative control"}]}]}
